Measurements published in publication PMC8113459, “Selective inhibition of cullin 3 neddylation through covalent targeting DCN1 protects mice from acetaminophen-induced liver toxicity” (Nature Communications, 2021).
Values joined by “and” are separate entries in the source; they are usually repeats but may differ in a detail not shown here. Identical values can stand only once.

Experiments:
DCN1 = DCN1 (Homo sapiens, UniProt Q96GG9); experiment: Competitive FP binding assay
Method: Competitive FP binding assay was performed as previously described. The IC50 and Ki values of DI-1548 and DI-1548DD were determined in competitive binding experiments. Mixtures of preincubated protein/probe complex solution in the assay buffer (196 μL) and compounds in DMSO (4 μL) were added into assay plates which were incubated at room temperature for 30 min with gentle shaking. The concentrations of DCN1 protein and fluorescent probe were 50 and 5 nM, respectively. […] FP values in millipolarization units were measured using the Infinite M-1000 plate reader (Tecan U.S., Research Triangle Park, NC) in Microfluor 1 96-well, black, round-bottom plates (Thermo Fisher Scientific, Waltham, MA) at an excitation wavelength of 485 nm and an emission wavelength of 530 nm. IC50 values were determined by nonlinear regression fitting of the competition curves using the dose–response inhibition equation (four parameters, variable slopes) included in the Prism/GraphPad software. Ki values were calculated using methods described previously.

HCT116 cells = experiment: Cell viability assay (WST-8), HCT116; assay type: cell-based, human; conditions: Homo sapiens, HCT-116; 72 h; cell line assigned from panel order; read-out: EC50, cell growth inhibition
How it was run: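 Cells (2000–3000 per well) were treated with serial dilutions of DCN1 inhibitors for 3 days, then incubated 1–3 h with WST-8 and absorbance read at 450 nm. Growth inhibition was sample-to-control absorbance ratio, with EC50 from fitted curves.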

four cancer cell lines = experiment: Cell viability assay (WST-8), four cancer cell lines; assay type: cell-based, human; conditions: concentrations up to 1000 nM, 72 h
Method: Cell viability assay was performed as previously described. The effect of DCN1 inhibitors on cell growth was evaluated by a WST-8 [2-(2-methoxy-4-nitrophenyl)-3-(4-nitrophenyl)-5-(2,4-disulfophenyl)-2H-tetrazolium, monosodium salt assay (Dojindo Molecular Technologies, Inc). Cells (2000–3000 cells in each well) were seeded in 96-well tissue culture plates in medium (100 μL) and treated with serial dilution of DCN1 inhibitors for 3 days. At the end of incubation, WST-8 dye (20 μL) was added to each well and incubated for 1–3 h, then the absorbance was measured in a microplate reader (Molecular Devices) at 450 nm. Cell growth inhibition was evaluated as the ratio of the absorbance of the sample to that of the control. The values were inserted into Prism software, and the curves and the EC50 values were produced by Prism software.

neddylation of cullin 3 = experiment: Western blot, cullin 3 neddylation in THLE2 liver cells; assay type: cell-based, human
Method: (§1) Western blotting was performed as described previously. Treated cells were lysed by RIPA buffer supplemented with protease inhibitor. The expression level of indicated proteins was examined by immunoblotting analysis and GAPDH was used as the loading control. Antibodies were purchased commercially: cullin 1 (sc-17775, 1:500 dilution) and cullin 2 (sc-166506, 1:500 dilution) from Santa Cruz Biotech (Santa Cruz, CA); cullin 4A (PA5-14542, 1:1000 dilution), cullin 4B (PA5-50647, 1:1000 dilution), and DCN3 (DCUN1D3, PA5-44000, 1:1000 dilution) from Thermo Fisher Scientific (Wayne, MI); cullin 3 (2759, 1:1000), NRF2 (12721, 1:1000 dilution), HO-1 (70081, 1:1000 dilution), and Bim (2819, 1:1000 dilution) from Cell Signaling Technology (Boston, MA); DCN1 (GWB-E3D700, 1:1000 dilution) from GenWay Biotech (San Diego, CA); and cullin 5 (A302-173A, 1:500 dilution) from Bethyl Labs (Montgomery, TX). Results are representative of two independent experiments.

HO-1 protein = experiment: Western blot, HO-1 protein in THLE2 cells; assay type: cell-based, human; conditions: THLE2, Fig. 6b
Method: as §1

[1] = test system: APAP-induced liver injury; experiment: APAP-induced liver injury: H&E histology of liver; assay type: in vivo, mouse
Method: The in vivo studies were performed under animal protocols (PRO00007499) and (PRO00006638) approved by the Institutional Animal Care & Use Committee of the University of Michigan, in accordance with the recommendations in the Guide for the Care and Use of Laboratory Animals of the National Institutes of Health. C57BL/6 WT mice (~8 weeks, male, normal chow) were purchased from the Jackson Laboratory and randomly divided into eight groups (8–9 mice per group) treated (IP) as follows: phosphate-buffered saline vehicle once per day for 3 days (G1), APAP alone a single dose at 400 mg/kg on day 1 (G2), DI-1859 alone 25 mg/kg once per day for 3 days (G3), DI-1859 alone 50 mg/kg once per day for 3 days (G4), pretreatment (1 day before the APAP administration) with DI-1859 at 25 mg/kg once per day for 3 days followed with APAP at 400 mg/kg on day (G5), pretreatment (1 day before the APAP administration) with DI-1859 at 50 mg/kg once per day for 3 days followed with APAP at 400 mg/kg on day (G6), APAP a single dose at 400 mg/kg (3 h before the first DI-1859 administration) followed with DI-1859 at 25 mg/Kg once per day for 3 days (G7), and APAP a single dose at 400 mg/kg (3 h before the first DI-1859 administration) followed with DI-1859 at 50 mg/Kg once per day for 3 days (G8).
To induce acute liver injury, animals received PBS or APAP (400 mg/kg, sigma, A7085) through I.P. injection at 12 p.m. and were sacrificed 48 h afterward. To examine the protective effect of DI-1859 (groups 5 and 6), animals were I.P. injected with compound for 3 consecutive days (9 a.m. on each day, starting 1 day before APAP administration). To examine the restorative effect of DI-1859 (groups 7 and 8), animals were I.P. injected with compound 3 h after APAP administration followed by two additional treatments (9 a.m. on the next 2 days). Body weight and blood glucose level measurement, along with blood sample collection, were performed at 12 p.m. on each day.
Liver paraffin sections were stained with H&E.

DCN1, sequence (Q96GG9 whole entry): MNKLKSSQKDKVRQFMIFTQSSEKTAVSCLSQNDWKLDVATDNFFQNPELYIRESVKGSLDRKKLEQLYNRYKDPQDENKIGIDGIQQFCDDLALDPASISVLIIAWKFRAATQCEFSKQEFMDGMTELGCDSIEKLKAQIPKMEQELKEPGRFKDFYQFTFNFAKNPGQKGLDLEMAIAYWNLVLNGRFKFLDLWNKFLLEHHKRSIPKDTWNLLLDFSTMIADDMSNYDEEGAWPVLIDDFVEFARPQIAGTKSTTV

C=C(CN1CCOCC1)C(=O)NC[C@@H](NC(=O)[C@H](Cc1nc2ccc(C(C)C)cc2s1)NC(=O)CC)C1CCCCC1 [DI-1548]
FP signal of the competitive binding curve (DCN1; Concentration (nM) 0.016935, duplicates): 44.2 and 44.7
FP signal of the competitive binding curve (DCN1; Concentration (nM) 0.050805, duplicates): 43.5 and 45.8
FP signal of the competitive binding curve (DCN1; Concentration (nM) 0.152416, duplicates): 44.1 and 44.8
FP signal of the competitive binding curve (DCN1; Concentration (nM) 0.457247, duplicates): 43.8 and 44
FP signal of the competitive binding curve (DCN1; Concentration (nM) 1.37174, duplicates): 41.3
FP signal of the competitive binding curve (DCN1; Concentration (nM) 4.11523, duplicates): 32.5 and 31.9
FP signal of the competitive binding curve (DCN1; Concentration (nM) 12.3457, duplicates): 17.8 and 17.9
FP signal of the competitive binding curve (DCN1; Concentration (nM) 37.037, duplicates): 15.7 and 15.4
FP signal of the competitive binding curve (DCN1; Concentration (nM) 111.111, duplicates): 14.3 and 14.5
FP signal of the competitive binding curve (DCN1; Concentration (nM) 333.333, duplicates): 15.3 and 15.7
FP signal of the competitive binding curve (DCN1; Concentration (nM) 1000, duplicates): 16.2 and 15.8
IC50 (DCN1; DCN1 50 nM, probe 5 nM, 30 min): 4.6 nM
Ki (DCN1; DCN1 50 nM, probe 5 nM, 30 min): < 1 nM
EC50 (HCT116 cells): > 1000 nM
cytotoxicity / cell viability (four cancer cell lines): no cytotoxicity

C=C(CN(C)C)C(=O)NC[C@@H](NC(=O)[C@H](Cc1nc2ccc(C(C)C)cc2s1)NC(=O)CC)C1CCCCC1 [DI-1859]
times more potent than MLN4924 in inhibition of the neddylation of cullin 3 (neddylation of cullin 3): ~ 30 times
HO-1 protein level (HO-1 protein): dose dependently upregulates
liver tissue damage by the compound alone ([1]; 25 and 50 mg/kg qD for 3 days (G3, G4), ALT and histology): caused no liver tissue damage
effect on APAP-induced liver tissue damage (histology) ([1]; prevention setting, 25 mg/kg): largely abolished tissue distortion and greatly reduced acetaminophen-induced tissue damage
effect on APAP-induced liver tissue damage (histology) ([1]; prevention setting, 50 mg/kg): near completely prevented APAP-induced liver tissue damage
effect on APAP-induced liver tissue damage (histology) ([1]; treatment setting, 25 and 50 mg/kg): significantly reduced the liver damage induced by APAP
